Measurements from patent US20240199649A1 (Biosplice Therapeutics, Inc., priority 2022, published 2024).

Biological target: recombinant DYRK1A kinase (Homo sapiens (Human), UniProt Q13627)
Assay: DYRK1A kinase assay (Ser/Thr 18 peptide Z-lyte FRET assay)
Assay type: biochemical
Conditions: DYRK1A 0.25 μg/mL, ATP 15 μM, Ser/Thr peptide 18 4 μM; one hour at room temperature; 11-point dose-response, duplicate
In short: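 Z-lyte FRET assay on Ser/Thr 18 peptide, kinase activity read as coumarin/fluorescein emission ratio; compounds incubated 1 h at room temperature, then development reagent 1 h, in duplicate. Phosphorylated and unphosphorylated peptide served as controls; IC50 by non-linear regression of dose-response curves.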

Row | SMILES | IC50
1 | CNc1nc(N[C@H]2CCN(C3CC3)C[C@H]2F)nn2ccc(-c3ccc4nc(C)n(CC(F)F)c4n3)c12 [Compound 378, N^2-((3R,4S)-1-Cyclopropyl-3-fluoropiperidin-4-yl)-5-(3-(2,2-difluoroethyl)-2-methyl-3H-imidazo[4,5-b]pyridin-5-yl)-N^4-methylpyrrolo[2,1-f][1,2,4]triazine-2,4-diamine] | 4.1 nM
2 | CNc1nc(N[C@@H]2CCN(C3CC(F)(F)C3)C[C@@H]2F)nn2ccc(-c3ccc4nc(C)n(CC(F)F)c4n3)c12 [Compound 380, N^2-((3S,4R)-1-(3,3-Difluorocyclobutyl)-3-fluoropiperidin-4-yl)-5-(3-(2,2-difluoroethyl)-2-methyl-3H-imidazo[4,5-b]pyridin-5-yl)-N^4-methylpyrrolo[2,1-f][1,2,4]triazine-2,4-diamine] | 3.2 nM
3 | CNc1nc(N[C@H]2CCN(C3CC(F)(F)C3)C[C@H]2F)nn2ccc(-c3ccc4nc(C)n(CC(F)F)c4n3)c12 [Compound 381, N^2-((3R,4S)-1-(3,3-Difluorocyclobutyl)-3-fluoropiperidin-4-yl)-5-(3-(2,2-difluoroethyl)-2-methyl-3H-imidazo[4,5-b]pyridin-5-yl)-N^4-methylpyrrolo[2,1-f][1,2,4]triazine-2,4-diamine] | 2.2 nM
4 | [2H]C([2H])([2H])Nc1nc(N[C@@H]2CCN(C)CC2(F)F)nn2ccc(-c3ccc4nc(C)n(CC(F)F)c4n3)c12 [Compound 382, (R)—N^2-(3,3-Difluoro-1-methylpiperidin-4-yl)-5-(3-(2,2-difluoroethyl)-2-methyl-3H-imidazo[4,5-b]pyridin-5-yl)-N^4-(methyl-d3)pyrrolo[2,1-f][1,2,4]triazine-2,4-diamine] | 3.3 nM
5 | CCN1CC[C@@H](Nc2nc(NC)c3c(-c4ccc5nc(C)n(CC(F)F)c5n4)ccn3n2)C(F)(F)C1 [Compound 383, (R)-5-(3-(2,2-Difluoroethyl)-2-methyl-3H-imidazo[4,5-b]pyridin-5-yl)-N^2-(1-ethyl-3,3-difluoropiperidin-4-yl)-N^4-methylpyrrolo[2,1-f][1,2,4]triazine-2,4-diamine] | 3.5 nM
6 | CCN1CC[C@H](Nc2nc(NC)c3c(-c4ccc5nc(C)n(CC(F)F)c5n4)ccn3n2)C(F)(F)C1 [Compound 384, (S)-5-(3-(2,2-Difluoroethyl)-2-methyl-3H-imidazo[4,5-b]pyridin-5-yl)-N^2-(1-ethyl-3,3-difluoropiperidin-4-yl)-N^4-methylpyrrolo[2,1-f][1,2,4]triazine-2,4-diamine] | 2 nM
7 | [2H]C([2H])([2H])Nc1nc(N[C@@H]2CCN(CC)CC2(F)F)nn2ccc(-c3ccc4nc(C)n(CC(F)F)c4n3)c12 [Compound 385, (R)-5-(3-(2,2-Difluoroethyl)-2-methyl-3H-imidazo[4,5-b]pyridin-5-yl)-N^2-(1-ethyl-3,3-difluoropiperidin-4-yl)-N^4-(methyl-d3)pyrrolo[2,1-f][1,2,4]triazine-2,4-diamine] | 4.6 nM
8 | CNc1nc(N[C@@H]2CCN(C3CC3)CC2(F)F)nn2ccc(-c3ccc4nc(C)n(CC(F)F)c4n3)c12 [Compound 386, (R)—N^2-(1-Cyclopropyl-3,3-difluoropiperidin-4-yl)-5-(3-(2,2-difluoroethyl)-2-methyl-3H-imidazo[4,5-b]pyridin-5-yl)-N^4-methylpyrrolo[2,1-f][1,2,4]triazine-2,4-diamine] | 4.6 nM
9 | CNc1nc(N[C@H]2CCN(C3CC3)CC2(F)F)nn2ccc(-c3ccc4nc(C)n(CC(F)F)c4n3)c12 [Compound 387, (S)—N^2-(1-Cyclopropyl-3,3-difluoropiperidin-4-yl)-5-(3-(2,2-difluoroethyl)-2-methyl-3H-imidazo[4,5-b]pyridin-5-yl)-N^4-methylpyrrolo[2,1-f][1,2,4]triazine-2,4-diamine] | 12.8 nM
10 | [2H]C([2H])([2H])Nc1nc(N[C@@H]2CCN(C3COC3)CC2(F)F)nn2ccc(-c3ccc4nc(C)n(CC(F)F)c4n3)c12 [Compound 388, (R)—N^2-(3,3-Difluoro-1-(oxetan-3-yl)piperidin-4-yl)-5-(3-(2,2-difluoroethyl)-2-methyl-3H-imidazo[4,5-b]pyridin-5-yl)-N^4-(methyl-d3)pyrrolo[2,1-f][1,2,4]triazine-2,4-diamine] | 4.7 nM
11 | CNc1nc(NC2CCC3(CC2)OCCO3)nn2ccc(-c3ccc4nc(C)n(CC(F)F)c4n3)c12 [Compound 389, 5-(3-(2,2-Difluoroethyl)-2-methyl-3H-imidazo[4,5-b]pyridin-5-yl)-N^4-methyl-N^2-(1,4-dioxaspiro[4.5]decan-8-yl)pyrrolo[2,1-f][1,2,4]triazine-2,4-diamine] | 1.8 nM
12 | CNc1nc(N[C@H]2CC[C@@](C)(O)CC2)nn2ccc(-c3ccc4nc(C)n(CC(F)(F)F)c4n3)c12 [Compound 441, (1s,4s)-1-Methyl-4-((5-(2-methyl-3-(2,2,2-trifluoroethyl)-3H-imidazo[4,5-b]pyridin-5-yl)-4-(methylamino)pyrrolo[2,1-f][1,2,4]triazin-2-yl)amino)cyclohexan-1-ol] | 0.7 nM
13 | CNc1nc(N[C@H]2CC[C@](C)(O)CC2)nn2ccc(-c3ccc4nnn(CC(F)F)c4n3)c12 [Compound 465, (1r,4r)-4-((5-(3-(2,2-Difluoroethyl)-3H-[1,2,3]triazolo[4,5-b]pyridin-5-yl)-4-(methylamino)pyrrolo[2,1-f][1,2,4]triazin-2-yl)amino)-1-methylcyclohexan-1-ol] | 1.4 nM
14 | CNc1nc(N[C@H]2CCN(C3COC3)C[C@H]2F)nn2ccc(-c3ccc4nnn(CC(F)F)c4n3)c12 [Compound 474, 5-(3-(2,2-Difluoroethyl)-3H-[1,2,3]triazolo[4,5-b]pyridin-5-yl)-N^2-((3R,4S)-3-fluoro-1-(oxetan-3-yl)piperidin-4-yl)-N^4-methylpyrrolo[2,1-f][1,2,4]triazine-2,4-diamine] | 1.3 nM
15 | CNc1nc(N[C@@H]2CCN(C)CC2(F)F)nn2ccc(-c3ccc4nnn(CC(F)F)c4n3)c12 [Compound 479, (R)—N^2-(3,3-Difluoro-1-methylpiperidin-4-yl)-5-(3-(2,2-difluoroethyl)-3H-[1,2,3]triazolo[4,5-b]pyridin-5-yl)-N4-methylpyrrolo[2,1-f][1,2,4]triazine-2,4-diamine] | 0.6 nM
16 | CNc1nc(N[C@@H]2CCN(C3COC3)CC2(F)F)nn2ccc(-c3ccc4nnn(CC(F)F)c4n3)c12 [Compound 480, (R)—N^2-(3,3-Difluoro-1-(oxetan-3-yl)piperidin-4-yl)-5-(3-(2,2-difluoroethyl)-3H-[1,2,3]triazolo[4,5-b]pyridin-5-yl)-N^4-methylpyrrolo[2,1-f][1,2,4]triazine-2,4-diamine] | 1.3 nM
17 | CCNc1nc(N[C@@H]2CCNCC2(F)F)nn2ccc(-c3ccc4nc(C)n(CC(F)F)c4n3)c12 [Compound 482, (R)-5-(3-(2,2-Difluoroethyl)-2-methyl-3H-imidazo[4,5-b]pyridin-5-yl)-N^2-(3,3-difluoropiperidin-4-yl)-N^4-ethylpyrrolo[2,1-f][1,2,4]triazine-2,4-diamine] | 3.1 nM
18 | CCNc1nc(N[C@@H]2CCN(C)CC2(F)F)nn2ccc(-c3ccc4nc(C)n(CC(F)F)c4n3)c12 [Compound 483, (R)—N^2-(3,3-difluoro-1-methylpiperidin-4-yl)-5-(3-(2,2-difluoroethyl)-2-methyl-3H-imidazo[4,5-b]pyridin-5-yl)-N^4-ethylpyrrolo[2,1-f][1,2,4]triazine-2,4-diamine] | 3.6 nM
19 | Cc1nc2ccc(-c3ccn4nc(N[C@@H]5CCNCC5(F)F)nc(NC(C)C)c34)nc2n1CC(F)F [Compound 484, (R)-5-(3-(2,2-Difluoroethyl)-2-methyl-3H-imidazo[4,5-b]pyridin-5-yl)-N^2-(3,3-difluoropiperidin-4-yl)-N^4-isopropylpyrrolo[2,1-f][1,2,4]triazine-2,4-diamine] | 6.4 nM
20 | Cc1nc2ccc(-c3ccn4nc(N[C@@H]5CCN(C)CC5(F)F)nc(NC(C)C)c34)nc2n1CC(F)F [Compound 485, (R)—N^2-(3,3-Difluoro-1-methylpiperidin-4-yl)-5-(3-(2,2-difluoroethyl)-2-methyl-3H-imidazo[4,5-b]pyridin-5-yl)-N^4-isopropylpyrrolo[2,1-f][1,2,4]triazine-2,4-diamine] | 7.3 nM
21 | Cc1nc2ccc(-c3ccn4nc(N[C@@H]5CCNCC5(F)F)nc(NC5COC5)c34)nc2n1CC(F)F [Compound 486, (R)-5-(3-(2,2-Difluoroethyl)-2-methyl-3H-imidazo[4,5-b]pyridin-5-yl)-N^2-(3,3-difluoropiperidin-4-yl)-N^4-(oxetan-3-yl)pyrrolo[2,1-f][1,2,4]triazine-2,4-diamine] | 7830 nM
22 | Cc1nc2ccc(-c3ccn4nc(N[C@@H]5CCN(C)CC5(F)F)nc(NC5COC5)c34)nc2n1CC(F)F [Compound 487, (R)—N2-(3,3-Difluoro-1-methylpiperidin-4-yl)-5-(3-(2,2-difluoroethyl)-2-methyl-3H-imidazo[4,5-b]pyridin-5-yl)-N4-(oxetan-3-yl)pyrrolo[2,1-f][1,2,4]triazine-2,4-diamine] | 3.8 nM
23 | Cc1nc2ccc(-c3ccn4nc(N[C@H]5CC[C@](C)(O)CC5)nc(N)c34)nc2n1CC(F)F [Compound 692, (1r,4r)-4-((4-Amino-5-(3-(2,2-difluoroethyl)-2-methyl-3H-imidazo[4,5-b]pyridin-5-yl)pyrrolo[2,1-f][1,2,4]triazin-2-yl)amino)-1-methylcyclohexan-1-ol] | 0.9 nM
24 | CC(=O)N1C[C@H](F)[C@H](Nc2nc(N)c3c(-c4ccc5nc(C)n(CC(F)F)c5n4)ccn3n2)C1 [Compound 700, 1-((3R,4S)-3-((4-Amino-5-(3-(2,2-difluoroethyl)-2-methyl-3H-imidazo[4,5-b]pyridin-5-yl)pyrrolo[2,1-f][1,2,4]triazin-2-yl)amino)-4-fluoropyrrolidin-1-yl)ethan-1-one] | 1 nM
25 | Cc1nc2ccc(-c3ccn4nc(N[C@@H]5CN(C6COC6)C[C@@H]5F)nc(N)c34)nc2n1CC(F)F [Compound 701, 5-(3-(2,2-Difluoroethyl)-2-methyl-3H-imidazo[4,5-b]pyridin-5-yl)-N^2-((3R,4S)-4-fluoro-1-(oxetan-3-yl)pyrrolidin-3-yl)pyrrolo[2,1-f][1,2,4]triazine-2,4-diamine] | 1 nM
